Experiments:
[1] = test system: TC-1 tumor cells expressing HPV16-E6 and HPV16-E7; test: Therapeutic efficacy against established TC-1 tumors (approximately 8 mm, treated day 25); format: in vivo, C57BL/6 mice; conditions: TC-1 s.c., treated i.v. day 25, tumors about 8 mm; for tumor growth: mean of two perpendicular diameters
Protocol: FIG. 6: Therapeutic efficacy of the EDA-HPVE7 fusion protein combined with poly I:C (pI:C). Mice were injected with 5×10^5 TC-1 cells and 25 days later, when tumor mean diameters were approximately 8 mm, they were treated intravenously with different vaccine combinations based on EDA (A). Tumor size, presented as the average of two perpendicular diameters (millimeters), was measured at regular intervals. The number of tumor-free mice on day 100 relative to the total number of animals included and the percent surviving on day 100 are indicated for each set of experiments. The p-value (*p<0.05) determined by the likelihood ratio test comparing tumor growth in the EDA-E7/pI:C treated group with tumor growth in the p:IC-treated group is indicated. The mice were sacrificed when the tumor diameters reached 20 mm or when necessary due to the sanitary status of the animals. (B) Survival curves from the immunized mice with the indicated immunogens are indicated (p values are indicated ((*p<0.05)). Pooled data of two independent experiments are shown.
THP1 cells (American Type Culture Collection ATCC, Manassas, Va.) were used for in vitro assays of monocyte activation by EDA derived fusion proteins. TC-1, tumor cells expressing HPV16-E6 and HPV16-E7 proteins derived from primary mouse lung epithelial cells, were obtained from the American Type Culture Collection (LGC Promochem, Molsheim, France). Cells were maintained in RPMI 1640 with GlutaMAX supplemented with 10% heat-inactivated fetal calf serum, 100 units/ml penicillin, 100 μg/ml streptomycin, 0.4 mg/ml geneticin and 5×10-5 mol/l 2-mercaptoethanol (Life Technologies, Cergy-Pontoise, France). 5×10^5 TC-1 cells were injected into the shaved back (left side) of C57BL/6 mice in 200 μL PBS. Tumor size, presented as the average of two perpendicular diameters (millimeters), was measured at regular intervals.
Monolix software (http://www.monolix.org/) was used for analysis of tumor growth data with non-linear mixed effect models. Mean diameters of tumors over time were fitted using the model described in equation 1.1 and treatments were compared using the likelihood ratio test.
Kaplan-Meier plots were used to analyze survival. Prism software (GraphPad Software, Inc. San Diego, USA) was used to determine the significance of differences in survival curves with a log rank test. The results of the in vivo killing analysis were analyzed by ANOVA followed by Dunnett's Multiple Comparison test. p values less than 0.05 were considered to be statistically significant.
To better evaluate the potency of EDA-HPVE7 as an antigen delivery system and as a vaccine, the therapeutic efficacy of this fusion protein was compared with that of the E7(49-57) peptide, both supplemented with TLR ligand pI:C. […]

[2] = test system: bone marrow-derived dendritic cells; test: IL-12 production by bone marrow-derived dendritic cells (ELISA); format: cell-based, mouse; conditions: 500 nM; ELISA of culture supernatant
Protocol: (§1) FIG. 3: EDA-HPV-E7 fusion protein induces the production of IL-12 by bone marrow-derived dendritic cells or the production of TNF-α by the human monocyte cell line THP-1. (A) Bone marrow-derived dendritic cells were incubated for […] with EDA-HPVE7 (500 nM), with peptide E7(49-57) (500 nM), with LPS (1 μg/ml) (positive control) or with culture medium (negative control). 24 hours later, the culture supernatant was harvested and the IL-12 released to the supernatant was measured by ELISA. (B) THP-1 cells were incubated for 15 hours with EDA-HPVE7 (500 nM), with peptide E7(49-57) (500 nM), with LPS (1 μg/ml) or with culture medium (negative control). After culture, the supernatants were harvested and the released TNF-α was measured by ELISA.
(§2) Bone marrow (BM)-derived dendritic cells were generated from mouse femur marrow cell cultures. […] After 24 h of culture, supernatants were harvested and IL-12 (p70) and TNF-α were measured by ELISA (BD-Pharmingen), according to manufacturer's instructions. Expression of DC maturation markers was measured by flow cytometry. […] After this initial incubation, cells were stained with the primary antibodies at 4° C. for 15 min, washed and acquired on FACSscan cytometer (BD Biosciences, San Diego, Calif.) and analyzed using Cell Quest software (BD Biosciences). […]

[3] = test system: EL4 cells pulsed with DTc peptide; test: In vivo induction of CTL by immunization, chromium release assay; set-up: species or system C57BL/6 mice; conditions: 2 nmol i.v. in PBS, no adjuvant; spleen cells day 7, cultured 5 days; compared with peptide DTc/E7(49-57)
Protocol: FIG. 4: In vivo induction of CTL by immunization with EDA-HPV-E7 protein or with the DTc/E7(49-57) peptide in PBS. (A) Mice were immunized i.v with 2 nmol EDA-HPV-E7 or with the DTc/E7(49-57) peptide. Seven days alter immunization, the mice were sacrificed and spleen cells were cultured in the presence or absence of DTc peptide for 5 days. CTL activity was measured using a conventional chromium release assay using EL4 cells radio labeled and pulsed with DTc peptide as target cells in the splenocytes cultures obtained from the mice immunized with the protein EDA-HPV-E7 (closed circles) ◯ with the peptide DTc/E7 (49-57) (open circles) (On the graphic, the absolute values are shown, said values are calculated by subtracting the value of lysis obtained without peptide from the value obtained in the presence of peptide). […]
It was assayed if mice immunized with the EDA-HPVE7 fusion protein developed HPVE7-specific T cell responses. […] CTL activity was measured using a conventional chromium release assay using radio labeled EL4 cells pulsed with DTc peptide or without peptide as target cells. (FIG. 4A) (On the graphic, the absolute values are shown, said values are calculated subtracting the value of lysis obtained without peptide from the value obtained in the presence of peptide). […]

[4] = test system: bone marrow-derived dendritic cells; test: Maturation of bone marrow-derived dendritic cells, maturation markers by flow cytometry; format: cell-based, mouse; conditions: BMDC incubated with 500 nM
Protocol: FIG. 2: Activation of bone marrow-derived dendritic cell maturation by the EDAHPV-E7 fusion protein. Bone marrow-derived dendritic cells were incubated for 48 hours with EDA-HPVE7 (500 nM), with peptide E7(49-57) (500 nM), with LPS (1 μg/ml) (positive control) or with culture medium (Control Neg). Cells were then harvested and analyzed by flow cytometry for the expression of the H-2b molecule or the maturation markers CD54 and CD86 (RFU: Relative fluorescence units).
as §2, with “cultures. After lysing erythrocytes with ACK lysing buffer, bone marrow cell were washed and subsequently depleted of lymphocytes and granulocytes by incubation with a mixture of antibodies against CD4 (GK1; ATCC, Manassas, Va.), CD8 (53.6.72; ATCC), Ly-6G/Gr1 (BD-Pharmingen; San Diego, Calif.) and CD45R/B220 (BD-Pharmingen) followed by rabbit complement.” for “cultures.”

[5] = test system: human monocyte cell line THP-1; test: In vitro monocyte activation, TNF-α released by THP-1 (ELISA); format: cell-based; conditions: 500 nM, 15 hours
Protocol: as §1
THP-1 cells were plated at 1×10^6 cells/well and cultured overnight at 37° C. and 5% CO2 in complete medium for stabilization of the culture. Different concentrations of the indicated antigens were added to the cultures and after 15 hour of incubation, culture supernatants were harvested. The concentration of human TNF-α released to the medium by the THP-1 cell line was quantified using a commercial ELISA assay (BD Pharmingen), according to manufacturer's instructions.
Therefore, it was assayed if the recombinant protein EDA-HPV-E7 was also able to induce maturation of BMDC in vitro.

[6] = test system: HPVE7-specific T cell responses; test: IFN-γ producing cells by ELISPOT in splenocytes of immunized mice; format: in vivo, C57BL/6 mice; conditions: 2 nmol i.v. in PBS, compared with E7(49-57) peptide

## Polyinosinic-polycytidylic acid [pI:C, reference compound]
[1]; Kaplan-Meier, log rank test
  survival: slight, statistically non-significant prolongation of survival
[1]
  tumor growth: followed the same tumor growth kinetics

## EDA-HPVE7: recombinant fusion protein: amino acids 1-29 of HPV-E7 at N-terminus of fibronectin EDA, amino acids 43-98 at C-terminus, six histidine residues
[2]
  production of IL-12 cytokine by BMDC: able to strongly stimulate the production
[3]
  CTL activity against target cells pulsed with the cytotoxic T cell epitope E7: higher levels of CTL activity
[4]
  expression of the maturation marker CD54: able to upregulate expression
  expression of the maturation marker IAb: able to upregulate expression
[1]
  tumor eradication (in words): unable to eradicate the tumors
  tumor growth: a delay in tumor growth was observed
[5]
  production of TNF-α cytokine by THP-1: able to induce the production
[6]
  number of IFN-γ producing spots specific for E7(49-57): higher number of IFN-γ producing spots
[6]; irradiated TC1 cells
  number of IFN-γ producing spots specific for TC1 cells: higher number of IFN-γ producing spots

Reference: patent publication US20120237535A1, “Therapeutic Compositions For The Treatment of HPV-Induced Diseases” (priority 2009, published 2012)
